Reference: ChEMBL document CHEMBL1141759, “Steroids from the Antarctic octocoral Anthomastus bathyproctus” (2005)

Tests used:
Type in all cases: functional
HT-29 = test: Cytotoxicity against human HT-29 cells by SRB assay
MDA-MB-231 = test: Cytotoxicity against human MDA-MB-231 cells by SRB assay
A549 = test: Cytotoxicity against human A549 cells by SRB assay

| SMILES | GI50 (HT-29) [µM] | GI50 (MDA-MB-231) [µM] | GI50 (A549) [µM] |
| --- | --- | --- | --- |
| COC(=O)C(C)/C=C/[C@@H](C)[C@H]1CC[C@H]2[C@@H]3CCC4=CC(=O)C=C[C@]4(C)[C@H]3CC[C@]12C (stereo partly drawn) | 20.2 | 22.4 | 21.4 |
| COC(=O)/C(C)=C/CC[C@@H](C)[C@H]1CC[C@H]2[C@@H]3CCC4=CC(=O)C=C[C@]4(C)[C@H]3CC[C@]12C | 15.3 | 21.2 | 16.5 |
| COC(=O)/C(C)=C/C[C@@H](OC(C)=O)[C@@H](C)[C@H]1CC[C@H]2[C@@H]3CCC4=CC(=O)C=C[C@]4(C)[C@H]3CC[C@]12C | – | 18.4 | – |
| C=C(CC[C@](C)(O)[C@H]1CC[C@H]2[C@@H]3CCC4=CC(=O)C=C[C@]4(C)[C@H]3CC[C@@]21C)C(C)C | – | – | 23.4 |
